Measured values published in PubChem BioAssay (NCI).
Several values for one entry are separate records, joined by “and”; a condition that tells them apart may be missing. Identical values can stand only once.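 Briefly, cells in 96-well plates were exposed to five compound concentrations for 48 h, and endpoints were estimated by linear interpolation. At the GI50, growth is halved. Definition used: TGI = concentration required for complete inhibition of growth.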

Tests used:
Assay in all cases: inhibition of tumour cell growth, NCI panel, 48 h
XF 498 CNS = tested on: XF 498 CNS
SNB-78 CNS = tested on: SNB-78 CNS
DLD-1 colon = tested on: DLD-1 colon
LXFL 529 NSCLC = tested on: LXFL 529 NSCLC
DMS 273 small cell lung = tested on: DMS 273 small cell lung
MCF7 breast = tested on: MCF7 breast
HS 578T breast = tested on: HS 578T breast
T-47D breast = tested on: T-47D breast
BT-549 breast = tested on: BT-549 breast
PC-3 prostate = tested on: PC-3 prostate

Compound	TGI (XF 498 CNS)	TGI (SNB-78 CNS)	TGI (DLD-1 colon)	TGI (LXFL 529 NSCLC)	TGI (DMS 273 small cell lung)	further results
C=CCC1[C@@H](C(C)(C)C(C(C)=O)C(=O)C(=O)OC)OC(C(C)(C)C)N1C(=O)OC (stereo partly specified)	> 100 µM	> 100 µM	> 100 µM			
CC(CC(=O)Nc1ccc(NC(=O)CC(C)N=NC(N)=S)cc1)N=NC(N)=S (stereo unspecified)	> 100 µM	> 100 µM	> 100 µM	> 100 µM	> 100 µM	
C#CCC(N)(CO)C(=O)O (stereo unspecified)	> 100 µM	> 100 µM	> 100 µM	> 100 µM	> 100 µM	
Cl[Si]1(Cl)Oc2ccccc2O[Si](Cl)(Cl)Oc2ccccc2O1	30.3 µM		> 100 µM		31.3 µM	
Cc1cc2c(Br)cc(Br)c(O)c2nc1C(=O)c1ccccc1		> 100 µM	> 100 µM	80.6 µM	42.3 µM	TGI (MCF7 breast): > 100 µM; TGI (HS 578T breast): > 100 µM; TGI (T-47D breast): 74.6 µM; TGI (BT-549 breast): > 100 µM; TGI (PC-3 prostate): > 100 µM
COc1c(Br)cc(Br)c(OC)c1-c1[nH]c(Br)c(Br)c1Br	14.3 µM	28.8 µM	18.4 µM		25.1 µM	
CC1(c2ccccc2)CC(c2ccccc2)=NO1 (stereo unspecified)		> 100 µM	> 100 µM	> 100 µM	> 100 µM	
O=C1C=C(O)c2[nH]c(=O)ccc2C1=O	> 100 µM	> 100 µM	> 100 µM		> 100 µM	
Cc1nnc(N/N=C(/C(=O)C(C#N)c2ccccc2)C(C#N)c2ccccc2)n1N (stereo unspecified)		> 90 µM	59.9 µM	10.6 µM	34.4 µM	
CC/C(=N\NS(=O)(=O)c1ccccc1)c1ccccc1	> 100 µM	> 100 µM	> 100 µM	> 100 µM	> 100 µM	
O=c1c(Cl)c(Cl)cnn1CCc1ccncc1	29.6 µM	49.8 µM	30.4 µM	29.8 µM	33.6 µM	
CC1(C)CC[C@H](C2=CC(=O)c3c(O)ccc(O)c3C2=O)O1	4.6 µM and 3.89 µM and 1.34 µM					TGI (MCF7 breast): 0.739 µM and 0.337 µM; GI50 (XF 498 CNS): 2.3 µM and 2.36 µM and 0.563 µM; TGI (HS 578T breast): 6.78 µM and 7.42 µM; TGI (T-47D breast): 1.35 µM and 2.63 µM; GI50 (BT-549 breast): 0.963 µM and 0.358 µM; TGI (BT-549 breast): 2.19 µM and 1.13 µM; GI50 (DMS 273 small cell lung): 7.31 µM and 1.32 µM and 0.752 µM; TGI (PC-3 prostate): 7.34 µM and 4.16 µM
COC(=O)/C(C#N)=C1\CCC(C(=O)OC)N1C (stereo unspecified)	> 100 µM	> 100 µM	> 100 µM		> 100 µM	
CC(=O)OC1COC(n2c(=S)n(-c3ccccc3)c(=O)c3cc(Br)ccc32)C(OC(C)=O)C1OC(C)=O (stereo unspecified)	45.2 µM	> 100 µM		> 100 µM	> 100 µM	
Cc1ccc(S(=O)(=O)N/N=C(\c2nc3ccc([N+](=O)[O-])cc3[nH]c2=O)C(O)c2ccccc2Cl)cc1 (stereo unspecified)		> 100 µM	> 100 µM	> 100 µM	> 100 µM	
O=C1C2=C(c3ccccc31)C(c1ccccc1Cl)N1C(=O)CCSC1=N2 (stereo unspecified)	> 100 µM		> 100 µM		> 100 µM	
Cc1ccc2nc3c(Cl)c(C)c(=O)cc-3sc2c1		> 100 µM	> 100 µM	> 100 µM	> 100 µM	GI50 (LXFL 529 NSCLC): 62.9 µM; GI50 (SNB-78 CNS): 54 µM; GI50 (DLD-1 colon): 42.6 µM
COc1cccc(/C=C2\CCC(C)(CN(C)C)C2=O)c1 (stereo unspecified)	> 100 µM	> 100 µM	> 100 µM		> 100 µM	
CCOC(=O)c1ccc(N[C@@H]2c3cc4c(cc3C(C3=CC(=O)C(=O)C(OC)=C3)[C@H]3C(=O)OCC32)OCO4)cc1 (stereo partly specified)	9.38 µM	> 54.6 µM	> 39.8 µM	29.4 µM	13.5 µM	
